Experimental findings from ChEMBL document CHEMBL4041547, “Novel Potentiators for Vancomycin in the Treatment of Biofilm-Related MRSA Infections via a Mix and Match Approach” (ACS Med Chem Lett, 2017) are described below.

Calls of active or inactive are those of the source. The rule behind the calls is not given here. Where only a bound is given, the exact number is not on record here.

A word on the inhibition: it is the percentage by which the read-out fell short of the control.

The target of data set [1] is T1, Signal transduction protein TRAP (Staphylococcus aureus (strain Mu50 / ATCC 700699)) (UniProt Q7A2Q4).
T1 sequence (whole entry): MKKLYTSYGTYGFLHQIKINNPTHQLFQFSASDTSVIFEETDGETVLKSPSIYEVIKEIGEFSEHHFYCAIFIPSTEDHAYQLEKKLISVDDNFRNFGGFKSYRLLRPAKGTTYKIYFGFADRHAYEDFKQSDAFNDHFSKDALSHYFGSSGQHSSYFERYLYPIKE
The data set is described as follows: Inhibition of methicillin-resistant Staphylococcus aureus Mu50 TRAP assessed as potentiation of vancomycin-induced antibiofilm activity by measuring vancomycin-mediated reduction in colony forming units at 25 uM cotreated with vancomycin for 24 hrs (reference value: 30 +/- 14%). As to conditions: Staphylococcus aureus subsp. aureus Mu50.

Data set [2] deals with Staphylococcus aureus. The experiment in a line: Growth inhibition of methicillin-resistant Staphylococcus aureus Mu50.
Data set [3] has as its target T1, Signal transduction protein TRAP (Staphylococcus aureus (strain Mu50 / ATCC 700699)). The experiment in a line: Inhibition of methicillin-resistant Staphylococcus aureus Mu50 TRAP assessed as potentiation of vancomycin-induced antibiofilm activity by measuring vancomycin-mediated reduction in colony forming units at 25 uM pretreated for 4 hrs prior to vancomycin addition measured after 20 hrs (reference value: 30 +/- 14%). As to conditions: Staphylococcus aureus subsp. aureus Mu50.

For data set [4], the system named is Staphylococcus aureus. The experiment in a line: Antibiofilm activity against methicillin-resistant Staphylococcus aureus Mu50 at 100 uM. Type of data set: functional.
Data set [5] concerns the target T1, Signal transduction protein TRAP (Staphylococcus aureus (strain Mu50 / ATCC 700699)). The data set is described as follows: Inhibition of methicillin-resistant Staphylococcus aureus Mu50 TRAP assessed as reduction in vancomycin MIC at 100 uM. As to conditions: Staphylococcus aureus subsp. aureus Mu50.
Data set [6] in a line: Drug metabolism assessed as CYP450-mediated compound degradation in human liver microsomes at 5 uM using NADPH as cofactor by UPLC-MS/MS analysis. Type of data set: ADME. In general terms: Liver microsomes are vesicles of endoplasmic reticulum, rich in cytochrome P450 enzymes.
Data set [7] is described as follows: Drug metabolism assessed as UGT-mediated compound degradation in human liver microsomes at 5 uM using UDPGA as cofactor by UPLC-MS/MS analysis. The class given is ADME.
In data set [8] the test system is Staphylococcus aureus. The experiment in a line: Antibiofilm activity against methicillin-resistant Staphylococcus aureus JE2 at 100 uM. The class given is functional.
The subject of data set [9] is Staphylococcus aureus. The experiment in a line: Inhibition of methicillin-resistant Staphylococcus aureus JE2 TRAP assessed as reduction in vancomycin MIC at 100 uM.
A further data set has as its system Plasma. The experiment in a line: Metabolic stability in human plasma by UPLC-MS/MS analysis. Type of data set: ADME, cell-free.

`O=C(OC[C@H]1OC(O)[C@@](O)(COC(=O)c2cc(O)c(O)c(O)c2)[C@@H]1O)c1cc(O)c(O)c(O)c1` (some centres undefined) [HAMAMELITANNIN]: the inhibition in data set [1] was found to be 31%; in data set [3] it was 35%. The MIC against Staphylococcus aureus [2] was greater than 500 µM.

Regarding `O=C(CCc1ccccc1)NC[C@]1(O)CO[C@H](CNC(=O)c2ccccc2Cl)[C@H]1O`, the inhibition in data set [1] came out at 18%; in [3], 35%. Moreover, in the data set on Staphylococcus aureus [2], the MIC is greater than 500 µM.

Regarding `O=C(NC[C@]1(O)CO[C@H](CN2C(=O)c3ccccc3C2=O)[C@H]1O)c1ccccc1Cl`, the result with Staphylococcus aureus [4] and with Staphylococcus aureus [8] was inactive. Moreover, the inhibition entry (in data set [5]; in the data set on Staphylococcus aureus [9]) was “inactive” each time. Besides, the results for the Stability entry (in [6]; in [7]; in the data set on Plasma) were “Unstable”, “Stable” and “Stable”, respectively.

Turning to `O=C(NC[C@]1(O)CO[C@H](CNC(=O)c2ccccc2Cl)[C@H]1O)c1cncnc1`, the inhibition in data set [1] turned out to be 35%; in [3] it was 36%. Moreover, in the data set on Staphylococcus aureus [2], the MIC is greater than 500 µM.

As for `O=C(NC[C@]1(O)CO[C@H](CNC(=O)c2ccccc2Cl)[C@H]1O)Nc1ccccc1`, the inhibition in data set [1] came out at 58%; in data set [3], 67%. In the data set with Staphylococcus aureus [2], the MIC is greater than 500 µM.

In the case of `[N-]=[N+]=NC[C@]1(O)CO[C@H](CNC(=O)c2ccccc2Cl)[C@H]1O`, the inhibition amounted to 88% in data set [1] and 87% in [3]. The molecule further showed an MIC in the data set on Staphylococcus aureus [2] greater than 500 µM.

As to `CN[C@H](CC(C)C)C(=O)N[C@H]1C(=O)N[C@@H](CC(N)=O)C(=O)N[C@H]2C(=O)N[C@H]3C(=O)N[C@H](C(=O)N[C@H](C(=O)O)c4cc(O)cc(O)c4-c4cc3ccc4O)[C@H](O)c3ccc(c(Cl)c3)Oc3cc2cc(c3O[C@@H]2O[C@H](CO)[C@@H](O)[C@H](O)[C@H]2O[C@H]2C[C@](C)(N)[C@H](O)[C@H](C)O2)Oc2ccc(cc2Cl)[C@H]1O`, the inhibition in data set [1] and in [3] was 30% each time.

Regarding `O=C(NC[C@]1(O)CO[C@H](CNC(=O)c2ccccc2Cl)[C@H]1O)c1ccc(Cl)cc1`, the inhibition in data set [1] came to 43%; in data set [3] it was 39%. In the data set with Staphylococcus aureus [2], this molecule displayed an MIC greater than 500 µM.

With `O=C(NC[C@]1(O)CO[C@H](CNC(=O)c2ccccc2Cl)[C@H]1O)c1ccccc1F`, the inhibition in data set [1] was found to be 56%; in [3] it was 38%. The MIC against Staphylococcus aureus [2] was greater than 500 µM.

For `O=C(NC[C@H]1OC[C@@](O)(CNC(=O)C2CCCCC2)[C@@H]1O)c1ccccc1Cl`, the results for the inhibition in data set [1] and in data set [3] were 55% and 85%, respectively. Besides, the MIC with Staphylococcus aureus [2] is greater than 500 µM.

Regarding `O=C(NC[C@]1(O)CO[C@H](CN2C(=O)c3ccccc3C2=O)[C@H]1O)c1ccnnc1`, the outcome in the data set with Staphylococcus aureus [4] and in the data set on Staphylococcus aureus [8] was inactive. Also, the inhibition entry (in data set [5]; in the data set on Staphylococcus aureus [9]) was “inactive” throughout.

With `CC(=O)NC[C@]1(O)CO[C@H](CNC(=O)c2ccccc2Cl)[C@H]1O`, the results for the inhibition in [1] and in [3] were 82% and 70%, respectively. The MIC with Staphylococcus aureus [2] is greater than 500 µM.

As to `O=C(NC[C@H]1OC[C@@](O)(CNS(=O)(=O)c2ccccc2)[C@@H]1O)c1ccccc1Cl`, the inhibition is 44% in data set [1] and 65% in [3]. The MIC in the data set on Staphylococcus aureus [2] was greater than 500 µM.

`COc1ccc(C(=O)NC[C@]2(O)CO[C@H](CNC(=O)c3ccccc3Cl)[C@H]2O)cc1`: the inhibition in [1] turned out to be 43%; in data set [3], 34%. The same molecule had an MIC in the data set on Staphylococcus aureus [2] greater than 500 µM.

Regarding `O=C(NC[C@H]1OC[C@@](O)(CNCc2ccccc2)[C@@H]1O)c1ccccc1Cl`, the inhibition in [1] worked out at 89%; in data set [3], 94%. Further, in the data set with Staphylococcus aureus [2], the MIC is greater than 500 µM.

As for `O=C(NC[C@]1(O)CO[C@H](CNC(=O)c2ccccc2Cl)[C@H]1O)c1ccccc1`, the inhibition in data set [1] worked out at 80%; in data set [3] it was 85%. This molecule registered an MIC in the data set on Staphylococcus aureus [2] greater than 500 µM.

Turning to `O=C(NC[C@H]1OC[C@H](O)[C@@H]1O)c1ccccc1Cl`, the figures for the inhibition in data set [1] and in [3] were 81% and 80%, respectively. For the same molecule, the MIC in the data set with Staphylococcus aureus [2] is greater than 500 µM.

Consider `O=C(NC[C@]1(O)CO[C@H](CNC(=O)c2ccccc2Cl)[C@H]1O)c1ccoc1`, for which the inhibition in [1] was 50%; in [3], 58%. In the data set with Staphylococcus aureus [2], the MIC was greater than 500 µM.

For `Cc1ccc(C(=O)NC[C@]2(O)CO[C@H](CNC(=O)c3ccccc3Cl)[C@H]2O)cc1`, the inhibition was 58% in [1] and 48% in [3]. In the data set with Staphylococcus aureus [2], this molecule gave an MIC greater than 500 µM.

Take `O=C(NC[C@H]1OC[C@@](O)(CN2Cc3ccccc3C2=O)[C@@H]1O)c1ccccc1Cl`: the inhibition in data set [1] amounted to 73%; in data set [3] it was 92%. Besides, the MIC with Staphylococcus aureus [2] was greater than 500 µM.
